Assay results published in US8318801B2, “Cinnamic compounds and derivatives therefrom for the inhibition of histone deacetylase” (Naturewise Biotech & Medicals Corporation, priority 2009, dated 2012).
Entries after “also recorded” stand apart in the source; their conditions may differ.

Legend:
[1] = system: SMN2 protein in fibroblast cells derived from SMA patients; conditions: after 64 hours of treatment; cited from earlier work
[2] = system: Human glioblastoma 05-MG cells; assay: Inhibition of cancer cell growth; format: cell-based; conditions: 05-MG cells, 1.0, 2.0, 4.0 μg/mL, 72 hrs (FIG. 5(e))
Experimental: (§1) Five cancer cell lines, Rat C6 giloma cells, Human breast cancer MCF-7 cells, Human glioma Hs683 cells, Human glioblastoma 05-MG cells, and Human lung cancer A549 cells, were cultured in Dulbecco's modified Eagle's medium (DMEM; Gibco) containing 10% fetal bovine serum (FBS) and 1% penicillin/streptomycin, and were kept at 37° C. in a humidified atmosphere of 95% air and 5% CO2. Human breast cancer. MDA-MB-231 cells were cultured in L-15 medium (Gibco) containing 10% fetal bovine serum (FBS), 1% penicillin/streptomycin, and 2 mM glutamine, and were maintained at 37° C. in a humidified atmosphere of 95% air and 0% CO2. For these experiments, the cells were seeded in 6-well plates or a 60-mm dish. After 24 hours, the cells were treated with different concentrations of the various compounds. […] Human glioblastoma 05-MG cells were treated with NBM-C-BCX-OS01 (1.0, 2.0, 4.0 μg/mL) and NBM-C-BMX-OS01 (1.0, 2.0, 4.0 μg/mL) for 72 hours (see FIG. 5(e)). […] The results were counted by a trypan blue exclusion assay (see FIG. 6(b)).

[3] = system: human breast cancer MDA-MB-231 cells; assay: Inhibition of cancer cell growth and change of morphology; format: cell-based; conditions: MDA-MB-231 cells
Experimental: Their results were counted by a trypan blue exclusion assay (see FIG. 9(f)).
as §1

Rat C6 glioma cells = assay: as above; format: cell-based; conditions: Rat C6 glioma cells
Experimental: (§2) Three cancer cell lines, Rat C6 giloma cells, Human breast cancer MCF-7 cells, and Human lung cancer A549 cells, were cultured in Dulbecco's modified Eagle's medium (DMEM; Gibco) containing 10% fetal bovine serum (FBS) and 1% penicillin/streptomycin. All three cell lines were maintained at 37° C. in a humidified atmosphere of 95% air and 5% CO2. For the experiments, the cells were seeded in 6-well plates. After 24 hours, the cells were treated with different concentrations of the various compounds.
as §1

[4] = system: acetyl-Histone H3, acetyl-Histone H4, acetyl-tubulin, p21, CTPS, Gelsolin, Hsp90, acetyl-Hsp90 in Human glioma Hs683 cells; assay: Immunoblotting of histones and HDAC associated proteins; format: cell-based; conditions: Hs683 cells, 1.0, 2.0, 4.0 μg/mL
Experimental: Human glioma Hs683 cells were seeded at 5×10^5 cells in a 60-mm dish or 1×10^6 cells in a 100-mm dish. After 24 hours, Human glioma Hs683 cells were treated with different doses of NBM-C-BCX-OS01, NBM-C-BMX-OS01 (1.0, 2.0, 4.0 μg/mL), and vorinostat (SAHA, 5 μM) for 72 hours. Lysates of Hs683 cells were prepared for the immunoblotting of acetyl-Histone H3 (Cell Signaling Technology, Inc.), acetyl-Histone H4 (Upstate), acetyl-tubulin (Sigma Chemical Co.), p21 (BD Pharmingen Technology, Inc.), CTPS (ABNOVA TAIWAN Corporation), Gelsolin (Sigma Chemical Co.), Hsp90 (Cell Signaling Technology, Inc.), acetyl-Hsp90 (ROCKLAND, Inc.) and actin (Sigma Chemical Co.). Proteins were detected by chemiluminescence (ECL, Amersham). […] SAHA was used as a positive control and β-actin as an internal control (see FIG. 7(b)).

Human glioma Hs683 cells [5] = assay: Cell cycle analysis by flow cytometry (propidium iodide); format: cell-based; conditions: Hs683 cells, 1.0, 2.0, 4.0 μg/mL, 72 hrs (FIG. 6(e))
Experimental: Human lung cancer A549 cells, Human glioma Hs683 cells and Human glioblastoma 05-MG cells were seeded 1×10^6 cells in a 100-mm dish. After 24 hours of incubation in DMEM+10% BSA, Human lung cancer A549 cells were treated with NBM-HB-OS01 (2.5, 5.0, 7.5, 10.0 μg/mL) for 24 hours and were treated with NBM-C-BCX-OS01 (2.5, 5.0, 7.5 μg/mL) and NBM-C-BMX-OS01 (2.5, 5, 7.5 μg/mL) for 72 hours. Human glioblastoma 05-MG cells were treated with NBM-C-BCX-OS01 (1.0, 2.0, 4.0 μg/mL) and NBM-C-BMX-OS01 (1.0, 2.0, 4.0 μg/mL) for 72 hours. Human glioma Hs683 cells were treated with NBM-C-BCX-OS01 (1.0, 2.0, 4.0 μg/mL). For cell cycle analysis, cells were fixed in 80% ethanol for 1 hour (or overnight) at −20° C. and then incubated with 2 μg/mL RNase A for 30 minutes at 37° C. Cells were stained with propidium iodide ([…] PI) in PBS and analyzed using a Becton Dickinson flow cytometer, BD FACScan and CellQuest acquisition and analysis programs. […] Human glioma Hs683 cells were treated with NBM-C-BCX-OS01 (1.0, 2.0, 4.0 μg/mL) for 72 hours.

Human glioma Hs683 cells [6] = assay: Inhibition of cancer cell growth; format: cell-based; conditions: Hs683 cells, 1.25, 2.5, 5.0 μg/mL, 72 hrs (FIG. 5(d))
Experimental: Their results were counted by a trypan blue exclusion assay (see FIG. 8(e)).
as §1

[7] = system: Human lung cancer A549 cells; assay: Inhibition of cancer cell growth; format: cell-based; conditions: 72 hrs, NBM-C-BX-OS01 7.5, others 2.5, 5.0, 7.5 μg/mL (FIG. 5(b))
Experimental: as §2, §1

[8] = system: cyclin D1 in MCF-7 breast cancer cells; conditions: cited from earlier work
[9] = system: transgenic mouse model of spinal and bulbar muscular atrophy; conditions: cited from earlier work

Which “up-regulation of SMN2 protein expression” value [1] does the source give for `CN(C)c1ccc(C(=O)NCCCCCCC(=O)NO)cc1` [M344] here?
The value was “up to 7 fold”.

For `COc1ccc(/C=C\C(=O)NO)c(OCc2ccc(Cl)cc2)c1CC=C(C)C` [NBM-C-BCX-OS01, (Z)-2-(4-Chlorobenzoxy)-3-prenyl-4-methoxy-N-hydroxycinamide], which cell growth inhibition [2] is on record?
The cell growth inhibition was “Cell growth inhibition was observed”.

What about the “change of cell morphology” value ([3]; 72 hours (FIG. 6(a))) of the same compound?
Its value is “changed the morphology of the cells”.

What about the “inhibition of cell growth” value ([3]; various concentrations, 72 hrs (FIG. 6(a))) of the same compound?
The value was “inhibition of the cell growth of human breast cancer MDA-MB-231 cells was observed; also recorded: inhibited the growth”.

What about the “inhibition of cell growth” value (Rat C6 glioma cells; 24 hrs, NBM-C-BA-OS01 5 μg/mL, others 2.5, 5.0 μg/mL (FIG. 5(a))) of the same compound?
Its value is “inhibited the cell growth”.

And the “inhibition of cell growth, similar to dose-dependent A549 result” value (Rat C6 glioma cells; various concentrations, 24 hrs (FIG. 5(c)))?
Its value is “the results were similar”.

And the CTPS protein level ([4]; 72 hrs (FIG. 7(a)))?
The CTPS protein level was “decreased in a dose-dependent manner”.

What about the Hsp90 protein level ([4]; 72 hrs (FIG. 7(a))) of the same compound?
The Hsp90 protein level was “decreased in a dose-dependent manner”.

What about the “induction (increase) of acetylated Hsp90 protein” value ([4]; 72 hrs (FIG. 7(a))) of the same compound?
The value was “detected in a dose-dependent manner; also recorded: observed in a dose-dependent manner”.

And the “induction (increase) of gelsolin protein” value ([4]; 72 hrs (FIG. 7(a)))?
Its value is “detected in a dose-dependent manner; also recorded: observed in a dose-dependent manner”.

And the “expression of acetylated Histone H3” value ([4]; 72 hrs (FIG. 7(b)))?
The value was “significantly increased in a dose-dependent manner; also recorded: induced in a dose-dependent manner”.

And the “expression of acetylated Histone H4” value ([4]; 72 hrs (FIG. 7(b)))?
The value was “significantly increased in a dose-dependent manner; also recorded: induced in a dose-dependent manner”.

And the “expression of acetylated tubulin” value ([4]; 72 hrs (FIG. 7(b)))?
The value was “significantly increased in a dose-dependent manner; also recorded: induced in a dose-dependent manner”.

And the “expression of p21” value ([4]; 72 hrs (FIG. 7(b)))?
The value was “significantly increased in a dose-dependent manner; also recorded: induced in a dose-dependent manner”.

And the “growth arrest in cell cycle analysis” value (Human glioma Hs683 cells [5])?
The value was “arrested the growth; also recorded: could arrest the growth”.

What about the cell growth inhibition (Human glioma Hs683 cells [6]) of the same compound?
Its cell growth inhibition is “Cell growth inhibition was observed”.

And the cell growth inhibition [7]?
Its cell growth inhibition is “induced A549 cells growth inhibition in a dose-dependent manner; also recorded: induced A549 cell growth inhibition in dose-dependent amounts”.

Which “ubiquitin-dependent cyclin D1 degradation” value [8] does the source give for `CC(/C=C/C(=O)NO)=C\[C@@H](C)C(=O)c1ccc(N(C)C)cc1` [Trichostatin A] here?
The value was “induce ubiquitin-dependent cyclin D1 degradation”.

For `CCCC(=O)[O-].[Na+]` [sodium butyrate], which “effect on phenotypic expression” value [9] is on record?
The value was “ameliorates phenotypic expression”.
